According to patent US8546320B2, “Hsp9O-targeted anti-cancer chimeric peptide” (Kyoto University, priority 2008, dated 2013):
Where a SMILES comes first, the peptide text is derived from it.

Columns and labels:
Caki-1 = assay type: cell-based, human; settings: Caki-1; for Anti-cancer activity (% relative to wild-type peptide) / Decrease in cell survival rate (% relative to wild-type peptide): wild-type peptide = 100%
U937 = experiment: cells; assay type: cell-based, human; settings: for Anti-cancer activity (% relative to wild-type peptide) / Decrease in cell survival rate (% relative to wild-type peptide): wild-type peptide = 100%
Experimental: A total of 3×10^3 cells per well were inoculated onto a 96 well plate, and incubated in a medium containing 10% FBS with 100 μl of a peptide diluted stepwise at 37° C. for 48 to 72 hours. The survival rate of the cells was measured by using WST-8 solution (Cell Count Reagent SF; Nacalai Tesque, Inc.).

cancer cells = experiment: Cell viability assay, summary statements on cancer cells; assay type: cell-based; settings: single mutation in TPR or Antp region of Antp-TPR

Row | Compound | Anti-cancer activity (% relative to wild-type peptide) (Caki-1) | Decrease in cell survival rate (% relative to wild-type peptide) (Caki-1) | Cell Survival Rate (%) (U937) | Anti-cancer activity (% relative to wild-type peptide) (U937; U937) | Decrease in cell survival rate (% relative to wild-type peptide) (U937; U937) | effect compared with the wild-type protein (summary of mutations) (cancer cells) | killing effect compared with the wild-type peptide (Caki-1) | killing effect compared with the wild-type peptide (U937; U937)
1 | CC[C@H](C)[C@H](NC(=O)[C@H](CCCNC(=N)N)NC(=O)[C@H](C)NC(=O)[C@H](Cc1ccc(O)cc1)NC(=O)[C@H](C)NC(=O)[C@H](CCCCN)NC(=O)[C@H](CCCCN)NC(=O)[C@H](CCCCN)NC(=O)[C@H](Cc1c[nH]c2ccccc12)NC(=O)[C@H](CCCCN)NC(=O)[C@H](CCSC)NC(=O)[C@H](CCCNC(=N)N)NC(=O)[C@H](CCCNC(=N)N)NC(=O)[C@H](CC(N)=O)NC(=O)[C@H](CCC(N)=O)NC(=O)[C@H](Cc1ccccc1)NC(=O)[C@H](Cc1c[nH]c2ccccc12)NC(=O)[C@@H](NC(=O)[C@H](CCCCN)NC(=O)[C@@H](NC(=O)[C@H](CCC(N)=O)NC(=O)[C@@H](N)CCCNC(=N)N)[C@@H](C)CC)[C@@H](C)CC)C(=O)NCC(=O)N[C@@H](CC(N)=O)C(=O)N[C@@H](CO)C(=O)N[C@@H](CO)C(=O)N[C@@H](Cc1ccccc1)C(=O)N[C@@H](CCCCN)C(=O)O [Antp-Y10S] (H-RQIKIWFQNRRMKWKKKAYARIGNSSFK-OH; N-terminus and C-terminus assumed) | 74.56% | 31.97% | 28.05% | 93.73% | 82.83% | effect similar to that of the wild-type protein | – | –
2 | CC[C@H](C)[C@H](NC(=O)[C@H](CCCNC(=N)N)NC(=O)[C@H](C)NC(=O)[C@H](Cc1ccc(O)cc1)NC(=O)[C@H](C)NC(=O)[C@H](CCCCN)NC(=O)[C@H](CCCCN)NC(=O)[C@H](CCCCN)NC(=O)[C@H](Cc1c[nH]c2ccccc12)NC(=O)[C@H](CCCCN)NC(=O)[C@H](CCSC)NC(=O)[C@H](CCCNC(=N)N)NC(=O)[C@H](CCCNC(=N)N)NC(=O)[C@H](CC(N)=O)NC(=O)[C@H](CCC(N)=O)NC(=O)[C@H](Cc1ccccc1)NC(=O)[C@H](Cc1c[nH]c2ccccc12)NC(=O)[C@@H](NC(=O)[C@H](CCCCN)NC(=O)[C@@H](NC(=O)[C@H](CCC(N)=O)NC(=O)[C@@H](N)CCCNC(=N)N)[C@@H](C)CC)[C@@H](C)CC)C(=O)NCC(=O)N[C@@H](CC(N)=O)C(=O)N[C@@H](Cc1ccc(O)cc1)C(=O)N[C@@H](Cc1ccc(O)cc1)C(=O)N[C@@H](Cc1ccccc1)C(=O)N[C@@H](CCCCN)C(=O)O [Antp-S9Y] (H-RQIKIWFQNRRMKWKKKAYARIGNYYFK-OH; N-terminus and C-terminus assumed) | 106.80% | 232.05% | 12.73% | 113.69% | 182.60% | effect higher than the wild-type protein | stronger than that of the wild-type peptide | increase in effect
